Assay results taken from PMC8222354 (2021).

Columns and labels:
[1] = test system: Tt preQ1-I RNA wildtype (RNA, riboswitch) CUGGGUCGCAGUAACCCCAGUUAACAAAACAAG; test: methylation kinetics, anion-exchange HPLC (kobs versus ligand concentration); conditions: 100 mM KCl, 2 mM MgCl2; MES, pH 6.0, 37 °C; apparent Michaelis constant; ligand methylates C15 N3 (covalent methyl transfer)
[2] = test system: Tt preQ1-I RNA C15U (RNA, riboswitch) CUGGGUCGCAGUAAUCCCAGUUAACAAAACAAG; test: isothermal titration calorimetry; conditions: 100 mM KCl, 2 mM MgCl2; 50 mM MES, pH 6.0, 20 °C
[3] = test system: Tt preQ1-I RNA wildtype (RNA, riboswitch) CUGGGUCGCAGUAACCCCAGUUAACAAAACAAG; test: isothermal titration calorimetry; conditions: 100 mM KCl, 2 mM MgCl2; 50 mM MES, pH 6.0, 20 °C

COc1nc(N)nc2[nH]cc(CN)c12
Km,app [1]: ~ 230 μM
Kd^ITC [2]: 72.2 ± 2.1 µM

NCc1c[nH]c2nc(N)[nH]c(=O)c12
Kd^ITC [3]: 0.043 ± 0.0019 µM
